Laboratory results published in patent publication US20240262818A1, “Selenium Maleimide Compounds And Uses Thereof” (THE UNIVERSITY OF NORTH CAROLINA AT CHAPEL HILL, priority 2021, published 2024).

Tests used:
[1] = assay type: physicochemical
Experimental: Synthesis of Compound 1: Selenium (31.0 mg, 0.39 mmol, 1.00 equiv.) was suspended in an aqueous solution of 1M NaOH (6 mL) under Ar atmosphere. To the solution, Rongalite (i.e., sodium hydroxymethanesulfinate, Na^+HOCH2SO2^−) (120.0 mg, 0.78 mmol, 2.00 equiv.) was added and stirred vigorously. Then, the reaction solution was heated to 80° C. using an oil bath. After reacting for 0.5 h, hepta-4,6-diynoic acid (44.0 mg, 0.36 mmol, 0.92 equiv.) in ethanol (4 mL) was added and the reaction mixture was reacted at 80° C. for an additional 5 h. The reaction was allowed to cool to room temperature and diluted with a saturated NH4Cl aqueous solution (10 mL). The solution was transferred to separatory funnel and extracted with EtOAc (20 mL×3). The combined organic layer was washed with brine (50 mL) and dried over MgSO4, filtered, concentrated, and purified by flash chromatography (20:1 hexanes:ethyl acetate to 10:1 to 5:1 to 2:1 to 1:1) to yield selenium compound 1 in 45% yield (36 mg). Isotopically pure compounds were also prepared by following the above described procedure.

[2] = system: viable peripheral blood mononuclear cells (PBMC); assay: Cell viability after SeMal incubation; assay type: cell-based; details: at working concentrations
Experimental: (§1) 3×10^6 viable, paraformaldehyde-fixed, or fixed and permeabilized peripheral blood mononuclear cells (PBMC) were incubated for 15 min with the indicated concentration of SeMal reagent in 0.2 ml PBS. Binding reactions were stopped by the addition of 5-fold excess volume of Cell Staining Buffer (Fluidigm) followed by incubation with Iridium using standard protocols. Data representations are from gated viable single cells. Cell viability […] incubation (for the viable cell condition) was >98%.

[3] = system: peripheral blood mononuclear cells (PBMC); assay: Labeling of PBMC with SeMal reagents, mass cytometry; assay type: cell-based; details: viable, fixed and fixed and permeabilized PBMC
Experimental: as §1

O=C(O)CCc1ccc[se]1 [Compound 1]
stability on storage [1]: sufficient stability

O=C(CCc1ccc[se]1)NCCN1C(=O)C=CC1=O [Compound 2]
toxicity when labeling viable cells [2]: non-toxic | labeling of PBMC [3]: effectively label
